The numbers were not newly measured in US20260265214A1, “NOVEL DERIVATIVES OF GLYCEROL” (SYMRISE AG, priority 2023, published 2026), which cites them from elsewhere.

For the data set the following is noted: in 28 days.

Turning to `CCCCCC1C(=O)CCC1CC(=O)OC` (stereo not shown) [methyl dihydrojasmonate, methyl 2-(3′-oxo-2′-pentylcyclopentyl)acetate], the readily biodegradable was 85%.
